The test system of assay [1] is dissociated cardiomyocytes from Sham and TAC mice. Briefly: Capacitance (cell size) of dissociated cardiomyocytes, murine TAC model of HFrEF. The assay is classed as in vivo. The conditions noted are these: TAC animals treated with DECA-11 (AAV9) vs. untreated TAC animals. From the text: (§1) A murine model of CI with reduced ejection fraction (HFrEF) was used to analyse the effect of SEQ ID NO: 3 on the decrease in INa and IK1 caused by electrical remodelling associated with Cl. The mice are subjected to transverse aortic constriction (TAC) with ligation, and pressure overload leads to the occurrence of cardiac hypertrophy and Cl. The mice were produced at the Medical Research Centre of the University of Navarra (CIMA), under the direction of Dr Aránzazu González Miqueo.
(§2) Eight-week-old mice were administered 3.5×10^10 particles of adeno-associated virus type 9 that encoded either the fluorescent reporter td-Tomato (Aav-dt-T) alone, or the reporter and the peptide DECA-11. At 12 weeks of age, an echocardiographic check-up (baseline) was performed and at week 13 they underwent surgery in which the aorta was ligated (TAC animals) or not (Sham animals).
That same week they were sent to the UCM animal facility. Next, the mice were heparinised and anaesthetised and then sacrificed by cervical dislocation, at a rate of one per day, and a thoracotomy was performed to remove the heart which was mounted through the aorta into a cannula connected to a Langendorff apparatus for enzymatic dissociation of the cardiac myocytes. […]

Assay [2] concerns minimal promoter of the human KCNJ2 gene. Description: Luciferase promoter assay in hEK-293 cells, KCNJ2. It counts as cell-based. The following applies: hEK-293 cells co-transfected with cDNA SEQ ID NO: 5; 48 hours after transfection. Here is the method: (§3) 48 hours after transfection, luciferase assays were performed using the LightSwitch Luciferase Assay reagent, also from Active Motif, and a Berthold luminometer. All assays were performed in triplicate and each point represents the mean of each technical triplicate.

Assay [3] relates to minimal promoter of the human SCN5A gene. Briefly: Luciferase promoter assay in hEK-293 cells, SCN5A. The assay is classed as cell-based. The conditions noted are these: hEK-293 cells co-transfected with cDNA SEQ ID NO: 5; 48 hours after transfection. Here is the method:
as §3

In assay [4] the test system is human minimal promoter of the SCN5A gene. Description: Luciferase assay in hEK-293 cells, minimal promoter of SCN5A. The assay is classed as cell-based. The following applies: hEK-293, co-transfected with cDNA SEQ ID NO: 5, 48 hours. Here is the method: as §3
Assay [5] relates to murine model of CI with reduced ejection fraction (HFrEF). Description: Murine model of CI (transverse aortic constriction): capacitance, INa and IK1 of dissociated cardiomyocytes. The assay is classed as in vivo, mice.
Source text: as §1, §2
That same week they were sent to the UCM animal facility. Next, the mice were heparinised and anaesthetised and then sacrificed by cervical dislocation, at a rate of one per day, and a thoracotomy was performed to remove the heart which was mounted through the aorta into a cannula connected to a Langendorff apparatus for enzymatic dissociation of the cardiac myocytes. After removal of the heart, said heart was cannulated through the aorta and placed in a Langendorff apparatus. First, the hearts were perfused with modified Tyrode's solution (composition in mM: 136 NaCI, 4 KCI, 2 MgCl2, 1.8 CaCl2, 10 HEPES, 10 glucose, 3 pyruvic acid and 0.1 thiamine, pH=7.4 with NaOH) bubbled with oxygen and at 37°C for 3-5 minutes. Subsequently, they were perfused for another 8 minutes with the same solution without CaCl2. After 1-2 minutes, the heart stops beating. Next, they were perfused with Tyrode's solution without CaCl2 supplemented with 120 u/ml collagenase type II from Worthington and 0.5 u/ml protease XIV from Sigma. Lastly, the hearts were perfused with a solution called KB of the following composition (mM): 25 KCI, 10 KH2PO4, 2 MgCI2, 0.5 EGTA-K, 5 HEPES-K, 100 glutamic acid, 10 aspartic acid, 20 taurine, 5 creatine and 10 glucose (pH=7.2 with KOH). After this process has been completed, the heart was detached from the cannula and shaken in aliquots of KB solution where the myocytes were disintegrated and stored in the refrigerator for at least one hour before electrophysiological recordings were started.
Capacitance is an indirect and reliable measure of cell size. As can be observed, there was no significant difference in the capacitance of myocytes from Sham animals, had they been infected with Ad-td-Tomato (control) or with Aav-DECA-11.
To record INa in mouse cardiomyocytes, the composition of the external solution was (mM): 4 NaCl, 1 MgCl2, 1 CaCl2, 0.1 CdCl2, 133.5 CsCl, 20 HEPES and 11 glucose (pH=7.35 with CsOH) and the solution that filled the recording micropipette was (mM): 10 NaF, 110 CsF, 20 CsCl, 10 HEPES and 10 EGTA (pH 7.35 with CsOH). All other protocols and conditions were the same as those used for recording INa in human iPSC-derived cardiomyocytes (according to Example 2.3).
As indicated above, IK1 was also recorded in mouse cardiomyocytes from all four groups. […] In fact, the density of IK1 in TAC animals pretreated with DECA-11 is not different from that recorded in Sham animals.

The test system of assay [6] is human Kir2.1 channels. Description: Density of IKir2.1 by whole-cell patch-clamp in CHO cells co-transfected with the cDNA encoding the peptide. The assay is classed as cell-based. The conditions noted are these: CHO cells expressing Kir2.1 plus cDNA of the peptide (SEQ ID NO: 5), vs cells transfected only with Kir2.1 channels. Here is the method: To do this, CHO cells were transfected with the cDNA that encodes the human cardiac channels (Kir2.1) that generate IK1 (Origene, USA) (SEQ ID NO: 22), co-transfecting cells, or not, with the cDNA described in SEQ ID NO: 5. […] The sampling frequency was 4 kHz and the data, filtered at a frequency of 2 kHz, were stored on hard disks for further analysis using the CLAMPFIT application of the pCLAMP software. The current (IKir2.1) was recorded by applying 250 ms pulses from -120 to +20 mV from a holding potential of -60 mV. The density of the same was obtained by normalising the amplitude of IKir2.1 at the end of the pulse by the capacitance of each cell (pA/pF). […] Like in example 2.1, each point represents the mean±SEM of "n" experiments obtained from at least 3 different CHO cell plates. One-way ANOVA followed by the Tukey test. * P<0.05 vs. cells transfected only with Kir2.1 channels.
Background: In patch-clamp work, channel activity is measured electrically.

The mark [7] stands for this setting: cardiomyocytes from Sham animals.
[8] abbreviates: cardiomyocytes from TAC animals.

Where no end group is shown, it is not given here.

Turning to “RFTRESLAAIE (listed as Homo sapiens) [SEQ ID NO: 3, 11-amino acid peptide, amino acids 15-25 of human Nav1.5]”, the capacitance of myocytes entry in assay [1] is recorded as “significantly lower”. Moreover, in assay [2], the “effect on the minimal promoter of the human KCNJ2 gene (luciferase)” value was “protranscriptional effect”. Also, the “effect on the minimal promoter of the human SCN5A gene (luciferase)” value in assay [3] was “no significant effect”.
RFTRESLAAIE [DECA-11, RFTRESLAAIE]: in assay [4], the “effect on the minimal promoter of the human SCN5A gene” value is recorded as “no significant effect”. Besides, in assay [5] (TAC animals, vs untreated TAC animals), the capacitance of myocytes entry was “significantly lower”. Moreover, the IK1 entry in assay [5] (setting [7]) and in assay [5] (setting [8]) was “significantly increases IK1” throughout. Moreover, the “density of INa” value in assay [5] (setting [7]) is “increased the density of INa”; in assay [5] (setting [8]) it was “significantly and markedly increased the density of INa”. Further, in assay [6], the “density of IKir2.1” value is “significantly increase the density of IKir2.1”.

For the origin of these results see patent EP4786486A1, “PEPTIDES FOR TREATING CARDIAC DISEASES” (Universidad Complutense De Madrid, priority 2023, dated 2025).
